Results from US20060134197A1, “Method of reducing unpleasant taste and/or unpleasant odor” (priority 2002, published 2006).

Tests used:
[1] = Inhibiting the production of hydrogen sulfide from L-cysteine due to heat-decomposition; conditions: 2.5 g L-cysteine hydrochloride and 5 g saccharide in 50 ml; 80° C. for 15 minutes; 100 minus relative value, control defined as 100
Source text: Two and half grams of precisely weighted L-cysteine hydrochloride (special reagent grade) and on a dry solid basis 5 g of a precisely measured saccharide sample; i.e. hydrous crystalline α,α-trehalose (reagent grade, purity 99.0% or more, commercialized by Hayashibara Biochemical Laboratories, Inc., Okayama, Japan), α-maltosyl α,α-trehalose prepared in the following Example 5 (purity 98.1%), or a reagent grade maltotetraose (purity 97.0% or more, commercialized by Hayashibara Biochemical Laboratories, Inc., Okayama, Japan); were placed in a 50-ml volume measuring flask and dissolved in deionized water to give a final volume of 50 ml. As a control, 2.5 g of precisely measured L-cysteine hydrochloride (special reagent grade) was dissolved in deionized water to give a final volume of 50 ml. Five ml of each sample was place into a 20-ml volume vial, sealed with a butyl gum cap, and kept at 80° C. for 15 minutes in an incubator. Hydrogen sulfide contained in 10 ml of the resulting headspace gas was measured by “GASTECH No. 4 LT”, a hydrogen sulfide detector commercialized by GL Science Corporation, under an aspiration time of one minute. The resulting value of the production of hydrogen sulfide of each test sample was compared with the value of control defined as 100 to calculate the relative value of the production of hydrogen sulfide. And then, the relative rate of inhibiting the production of hydrogen sulfide was calculated by 100 minus the relative value.

[2] = Panel test of lowering iron taste and/or smell of aqueous bivalent iron ion solution; design: key to Effect on lowering iron taste and/or smell: “Not effective (symbol “−”)” meaning of that the test aqueous solution showed no difference in iron taste and/or smell from that the control aqueous solution; “Slightly effective (symbol “+”)”, the test aqueous solution showes weaker iron taste and/or smell than the control aqueous solution but the deference was not significant; “Effective (symbol “++”)”, the test aqueous solution showed a slight iron taste and/or smell but it was significantly weaker than that of the control aqueous solution; “Strongly effective (symbol “+++”)”, the test aqueous solution showed almost no iron taste and/or smell; conditions: for Effect on lowering iron taste and/or smell: 5 mg bivalent iron per 100 ml, 12 panels
Method: To confirm the effect of various saccharides on inhibiting taste and/or smell of bivalent iron ion, the following experiment was carried out. An aqueous solution containing bivalent iron ion was prepared by dissolving 0.05556 part by weight of ammonium ferric citrate (iron content of about 18%), and 0.1 part by weight of ascorbic acid in 100 parts by weight of deionized water. Test aqueous solutions containing 5 mg of bivalent iron per 100 ml of water and 0.5, 1.0, 1.5, 2.0 or 5.0% of saccharide selected from sucrose, maltose (hydrous crystalline maltose commercialized by Hayashibara Biochemical Laboratories, Inc., Okayama, Japan, purify 99.0% or more), α,α-trehalose (hydrous crystalline α,α-trehalose commercialized by Hayashibara Biochemical Laboratories, Inc., Okayama, Japan, purity 99.0% or more), α-glucosyl α,α-trehalose (hydrous crystalline α-glucosyl α,α-trehalose prepared in Experiment B-1 of Japanese Patent Publication (Kokai) No. 291,986/1995, purity 99.0% or more), and […] (powdery α-maltosyl α,α-trehalose prepared in Example 5 described following, purity 98.1%) were prepared by admixing the above aqueous solution containing bivalent iron with an equal volume of a pre-prepared aqueous solution containing any one of the above saccharides at a concentration of 1.0, 2.0, 3.0, 4.0 or 10.0%, on a dry solid basis. As a control, an aqueous solution was prepared by admixing the aqueous solution containing bivalent iron ion with an equal volume of warter instead of the aqueous saccharide solution.
The effect on lowering iron taste and/or smell, namely unpleasant taste and/or smell of iron ion existing in a test aqueous solution at a concentration of 5 mg per 100 ml was judged by a panel test using 12 panels. […] In the judgement for each test aqueous solution, ten or more of 12 panels answered the same judgement.

[3] = Water solubility and hygroscopicity of the agents; type: physicochemical

Row | Compound | Relative rate of inhibiting the production of hydrogen sulfide [1] | Effect on lowering iron taste and/or smell ([2]; saccharide 0.5%) | Effect on lowering iron taste and/or smell ([2]; saccharide 1.0%) | Effect on lowering iron taste and/or smell ([2]; saccharide 1.5%) | Effect on lowering iron taste and/or smell ([2]; saccharide 2.0%) | Effect on lowering iron taste and/or smell ([2]; saccharide 5.0%) | Hygroscopicity [3] | Solubility in water [3] | Concentration effective on lowering unpleasant taste and/or smell of aqueous iron ion solution ([2]; to the total weight of the aqueous solution, dry solid basis)
1 | OC[C@H]1O[C@H](O[C@H]2[C@H](O)[C@@H](O)[C@@H](O[C@H]3[C@H](O)[C@@H](O)[C@@H](O[C@H]4[C@H](O)[C@@H](O)C(O)O[C@@H]4CO)O[C@@H]3CO)O[C@@H]2CO)[C@H](O)[C@@H](O)[C@@H]1O (some centres unmarked) [Maltotetraose, maltotetraose] | 12 |  |  |  |  |  |  |  | 
2 | OC[C@H]1O[C@H](O[C@H]2O[C@H](CO)[C@@H](O[C@H]3O[C@H](CO)[C@@H](O)[C@H](O)[C@H]3O)[C@H](O)[C@H]2O)[C@H](O)[C@@H](O)[C@@H]1O [α-Glucosyl α,α-trehalose, α-glucosyl α,α-trehalose] |  | − | + | ++ | ++ | +++ |  |  | 
3 | OC[C@H]1O[C@H](O[C@H]2O[C@H](CO)[C@@H](O[C@H]3O[C@H](CO)[C@@H](O[C@H]4O[C@H](CO)[C@@H](O)[C@H](O)[C@H]4O)[C@H](O)[C@H]3O)[C@H](O)[C@H]2O)[C@H](O)[C@@H](O)[C@@H]1O [α-Maltosyl α,α-trehalose, α-maltosyl α,α-trehalose] | 36 | − | + | ++ | ++ | +++ | low hygroscopicity | satisfactory solubility in water | 
4 | OC[C@H]1O[C@H](O[C@H]2[C@H](O)[C@@H](O)C(O)O[C@@H]2CO)[C@H](O)[C@@H](O)[C@@H]1O (mixture of isomers) [Maltose, maltose] |  | − | − | − | + | + |  |  | ≥ 2%
